Measurements: patent US6355673B1, “Substituted diaminocarboxylic acids” (Aventis Pharma Deutschland GmbH, priority 1997, dated 2002)

Tests used:
[1] = target: T1, neutrophil collagenase (MMP-8) (Homo sapiens, UniProt P22894); experiment: Enzyme inhibition of the catalytic domain of neutrophil collagenase (fluorogenic substrate); type: biochemical; details: 15 min preincubation, pH=6.5, fluorescence 328 nm (ex)/393 nm (em)
T1 construct: enzymatic activity of the catalytic domains of human stromelysin and of neutrophil collagenase; made in house
T1 sequence (P22894 100-262 limits assumed): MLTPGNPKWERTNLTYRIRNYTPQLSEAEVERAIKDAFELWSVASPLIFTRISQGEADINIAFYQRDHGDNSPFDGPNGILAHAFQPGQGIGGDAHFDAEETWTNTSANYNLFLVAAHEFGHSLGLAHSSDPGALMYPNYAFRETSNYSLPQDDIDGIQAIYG
Procedure: (§1) Preparation and determination of the enzymatic activity of the catalytic domains of human stromelysin and of neutrophil collagenase.
(§2) The enzymes stromelysin (MMP-3) and neutrophil collagenase (MMP-8) were prepared according to Ye et al. (Biochemistry; 31 (1992) pages 11231-11235). To measure the enzyme activity or the enzyme inhibitor action, 70 μl of buffer solution and 10 μl of enzyme solution are incubated for 15 min with 10 μl of a 10% strength (v/v) aqueous dimethyl sulfoxide solution, which optionally contains the enzyme inhibitor. After addition of 10 μl of a 10% strength (v/v) aqueous dimethyl sulfoxide solution which contains 1 mil/L of the substrates, the enzyme reaction is monitored by fluorescence spectroscopy (328 nm (ex)/393 nm(em)). The enzyme activity is shown as the extinction increase/min. The IC50 values listed in Table 2 are determined as those inhibitor concentrations which in each case lead to a 50% inhibition of the enzyme.
(§3) The buffer solution contains 0.05% Brij (Sigma, Deisenhofen, Germany) and also 0.1 mol/L tris/HCl, 0.1 mol/L NaCl, 0.01 mol/L CaCl2 and 0.1 mol/L piperazine-N,N′-bis(2-ethanesulfonic acid) (pH=6.5). The enzyme solution contains 5 μg/ml of one of the enzyme domains prepared according to Ye et al. The substrate solution contains 1 mil/L of the fluorogenic substrate (7-methoxycoumarin-4-yl)acetyl-Pro-Leu-Gly-Leu-3-(2′,4′-dinitrophenyl)-L-2,3-diaminopropionyl-Ala-Arg-NH2 (Bachem, Heidelberg, Germany).

[2] = target: T2, stromelysin (MMP-3) (Homo sapiens, UniProt P08254); experiment: Enzyme inhibition of the catalytic domain of human stromelysin (fluorogenic substrate); type: biochemical; details: 15 min preincubation, pH=6.5, fluorescence 328 nm (ex)/393 nm (em)
T2 construct: enzymatic activity of the catalytic domains of human stromelysin and of neutrophil collagenase; made in house
T2 sequence (P08254 100-272 limits assumed): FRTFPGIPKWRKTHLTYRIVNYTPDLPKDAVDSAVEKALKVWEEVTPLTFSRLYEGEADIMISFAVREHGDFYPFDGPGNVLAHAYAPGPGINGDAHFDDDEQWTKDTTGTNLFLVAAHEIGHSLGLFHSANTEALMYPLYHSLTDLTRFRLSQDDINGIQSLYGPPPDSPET
Procedure: as §1, §2, §3

SMILES	IC50 [1] [nM]	IC50 [2] [nM]
COc1ccc(S(=O)(=O)NCCC[C@H](NS(=O)(=O)c2ccc(-c3ccc(Cl)cc3)cc2)C(=O)O)cc1OC [Example 60]	10	10
CC1(C)C(C(=O)NCCC[C@H](NS(=O)(=O)c2ccc(-c3ccc(Cl)cc3)cc2)C(=O)O)C1(C)C [Example 70]	3	10
O=C(NCCC[C@H](NS(=O)(=O)c1ccc(-c2ccc(Cl)cc2)cc1)C(=O)O)c1ccc(C(F)(F)F)cc1 [Example 72]	6	20
O=C(O)c1ccccc1S(=O)(=O)NCCC[C@H](NS(=O)(=O)c1ccc(-c2ccc(Cl)cc2)cc1)C(=O)O [Example 76]	40	40
N#Cc1ccc(C(=O)NCCC[C@H](NS(=O)(=O)c2ccc(-c3ccc(Cl)cc3)cc2)C(=O)O)cc1 [Example 85]	5	20
O=C(NCCC[C@H](NS(=O)(=O)c1ccc(-c2ccc(Cl)cc2)cc1)C(=O)O)c1ccc(F)c(F)c1 [Example 87]	10	30
O=C(Cc1ccc(Cl)cc1)NCCC[C@H](NS(=O)(=O)c1ccc(-c2ccc(Cl)cc2)cc1)C(=O)O [Example 89]	10	30
O=C(NCCC[C@H](NS(=O)(=O)c1ccc(-c2ccc(Cl)cc2)cc1)C(=O)O)c1ccc(Cl)cc1 [Example 90]	5	20
O=C(NCCC[C@H](NS(=O)(=O)c1ccc(-c2ccc(Cl)cc2)cc1)C(=O)O)c1cccc(Cl)c1 [Example 91]	5	30
O=C(NCCC[C@H](NS(=O)(=O)c1ccc(-c2ccc(Cl)cc2)cc1)C(=O)O)c1ccc(Cl)c(Cl)c1 [Example 92]	20	40
O=C(NCCC[C@H](NS(=O)(=O)c1ccc(-c2ccc(Cl)cc2)cc1)C(=O)O)c1cc(F)cc(F)c1 [Example 93]	4	20
O=C(NCCC[C@H](NS(=O)(=O)c1ccc(-c2ccc(Cl)cc2)cc1)C(=O)O)c1cc(F)ccc1F [Example 94]	5	30
O=C(NCCC[C@H](NS(=O)(=O)c1ccc(-c2ccc(Cl)cc2)cc1)C(=O)O)c1cccc(F)c1 [Example 95]	4	20
O=C(NCCC[C@H](NS(=O)(=O)c1ccc(-c2ccc(Cl)cc2)cc1)C(=O)O)C1Cc2ccccc2N1 (stereo partly shown) [Example 96]	6	20
O=C(NCCC[C@H](NS(=O)(=O)c1ccc(-c2ccc(Cl)cc2)cc1)C(=O)O)c1cccc(F)c1F [Example 97]	4	20
O=C(/C=C/c1ccccc1)NCCC[C@H](NS(=O)(=O)c1ccc(-c2ccc(Cl)cc2)cc1)C(=O)O [Example 101]	10	40
O=C(NCCC[C@H](NS(=O)(=O)c1ccc(-c2ccc(Cl)cc2)cc1)C(=O)O)c1ccc(O)cc1 [Example 102]	5	20
O=C(NCCC[C@H](NS(=O)(=O)c1ccc(-c2ccc(Cl)cc2)cc1)C(=O)O)c1ccc(Cc2ccccc2)cc1 [Example 103]	60	70
COc1ccc(C(=O)NCCC[C@H](NS(=O)(=O)c2ccc(-c3ccc(Cl)cc3)cc2)C(=O)O)c(OC)c1 [Example 104]	8	30
O=C(NCCC[C@H](NS(=O)(=O)c1ccc(-c2ccc(Cl)cc2)cc1)C(=O)O)c1ccc(OC(F)(F)F)cc1 [Example 105]	10	40
CCCCOc1ccc(C(=O)NCCC[C@H](NS(=O)(=O)c2ccc(-c3ccc(Cl)cc3)cc2)C(=O)O)cc1 [Example 106]	30	60
Nc1ccc(C(=O)NCCC[C@H](NS(=O)(=O)c2ccc(-c3ccc(Cl)cc3)cc2)C(=O)O)cc1 [Example 107]	4	10
O=C(CC1CCCCC1)NCCC[C@H](NS(=O)(=O)c1ccc(-c2ccc(Cl)cc2)cc1)C(=O)O [Example 108]	5	20
O=C(NCCC[C@H](NS(=O)(=O)c1ccc(-c2ccc(Cl)cc2)cc1)C(=O)O)c1ccc(C(F)(F)F)cc1F [Example 109]	7	20
O=C(NCCC[C@H](NS(=O)(=O)c1ccc(-c2ccc(Cl)cc2)cc1)C(=O)O)c1ccc2ccccc2c1 [Example 110]	20	40
O=C(Cc1ccc(F)cc1)NCCC[C@H](NS(=O)(=O)c1ccc(-c2ccc(Cl)cc2)cc1)C(=O)O [Example 116]	4	20
CC(C)COC(=O)NCCC[C@H](NS(=O)(=O)c1ccc(-c2ccc(Cl)cc2)cc1)C(=O)O [Example 118]	4	10

The remaining lines, values ahead:

IC50 [1] [nM]	IC50 [2] [nM]	SMILES
2	5	O=C(NCCC[C@H](NS(=O)(=O)c1ccc(-c2ccc(Cl)cc2)cc1)C(=O)O)C1CC1 [Example 62]
2	10	O=C(O)[C@H](CCCN(C(=O)C1CC1)C(=O)C1CC1)NS(=O)(=O)c1ccc(-c2ccc(Cl)cc2)cc1 [Example 63]
2	30	O=C(O)C1CC1C(=O)NCCC[C@H](NS(=O)(=O)c1ccc(-c2ccc(Cl)cc2)cc1)C(=O)O (stereo partly shown) [Example 64]
2	10	O=C(NCCC[C@H](NS(=O)(=O)c1ccc(-c2ccc(Cl)cc2)cc1)C(=O)O)C1CCC1 [Example 66]
2	4	CC1CC1C(=O)NCCC[C@H](NS(=O)(=O)c1ccc(-c2ccc(Cl)cc2)cc1)C(=O)O (stereo partly shown) [Example 69]
3	10	O=C(NCCC[C@H](NS(=O)(=O)c1ccc(-c2ccc(Cl)cc2)cc1)C(=O)O)c1ccc(F)cc1 [Example 71]
2	4	CC(=O)Oc1ccccc1C(=O)NCCC[C@H](NS(=O)(=O)c1ccc(-c2ccc(Cl)cc2)cc1)C(=O)O [Example 73]
3	10	O=C(NCCC[C@H](NS(=O)(=O)c1ccc(-c2ccc(Cl)cc2)cc1)C(=O)O)c1ccccc1O [Example 74]
4	20	NC(=O)C1(C(=O)NCCC[C@H](NS(=O)(=O)c2ccc(-c3ccc(Cl)cc3)cc2)C(=O)O)CC1 [Example 75]
2	10	C[C@@H]1NC(=O)N(CCC[C@H](NS(=O)(=O)c2ccc(-c3ccc(Cl)cc3)cc2)C(=O)O)C1=O [Example 77]
2	5	O=C(CC[C@H](C(=O)O)c1ccccc1)NCCC[C@H](NS(=O)(=O)c1ccc(-c2ccc(Cl)cc2)cc1)C(=O)O [Example 79]
3	10	O=C(CC[C@@H](C(=O)O)c1ccccc1)NCCC[C@H](NS(=O)(=O)c1ccc(-c2ccc(Cl)cc2)cc1)C(=O)O [Example 80]
3	30	CC(C)(CC(=O)O)CC(=O)NCCC[C@H](NS(=O)(=O)c1ccc(-c2ccc(Cl)cc2)cc1)C(=O)O [Example 81]
4	20	CCC(=O)NCCC[C@H](NS(=O)(=O)c1ccc(-c2ccc(Cl)cc2)cc1)C(=O)O [Example 82]
3	7	O=C(NCCC[C@H](NS(=O)(=O)c1ccc(-c2ccc(Cl)cc2)cc1)C(=O)O)c1ccccc1Cl [Example 83]
4	20	O=C(NCCC[C@H](NS(=O)(=O)c1ccc(-c2ccc(Cl)cc2)cc1)C(=O)O)C1CSCN1 (stereo partly shown) [Example 84]
4	20	O=C(NCCC[C@H](NS(=O)(=O)c1ccc(-c2ccc(Cl)cc2)cc1)C(=O)O)c1ccc(F)cc1F [Example 86]
3	10	O=C(NCCC[C@H](NS(=O)(=O)c1ccc(-c2ccc(Cl)cc2)cc1)C(=O)O)c1ccccc1F [Example 88]
3	10	COCC(=O)NCCC[C@H](NS(=O)(=O)c1ccc(-c2ccc(Cl)cc2)cc1)C(=O)O [Example 98]
2	5	O=C(NCCC[C@H](NS(=O)(=O)c1ccc(-c2ccc(Cl)cc2)cc1)C(=O)O)c1ccco1 [Example 99]
2	4	Cc1ccsc1C(=O)NCCC[C@H](NS(=O)(=O)c1ccc(-c2ccc(Cl)cc2)cc1)C(=O)O [Example 100]
3	10	O=C(Cc1cccs1)NCCC[C@H](NS(=O)(=O)c1ccc(-c2ccc(Cl)cc2)cc1)C(=O)O [Example 111]
3	5	O=C(O)[C@H](CCCN(Cc1ccccc1)C(=O)C1CC1)NS(=O)(=O)c1ccc(-c2ccc(Cl)cc2)cc1 [Example 113]
2	5	O=C(O)[C@H](CCCn1sc2ccccc2c1=O)NS(=O)(=O)c1ccc(-c2ccc(Cl)cc2)cc1 [Example 114]
3	5	O=C(NCCC[C@H](NS(=O)(=O)c1ccc(-c2ccc(Cl)cc2)cc1)C(=O)O)c1ccc(Cl)cc1Cl [Example 115]
2	9	O=C(NCCC[C@H](NS(=O)(=O)c1ccc(-c2ccc(Cl)cc2)cc1)C(=O)O)c1ccccc1 [Example 117]
